test: recombinant barcode read abundance after kanamycin selection (control-corrected) (log10(CPM+1)); higher = more efficient recombination; sequences stand for … in AGTGCAGAGAAAATCGGCCAGTTTTCTCTGCCTGCAGTCCGCATGCCGT…AGATTTATGCAGCGGACTGCCTTTCTCCCAAAGTGATAAACCGGACAGTATCATGGACCGGTTTTCCCGGTAATCCGTATTTGCAAGGTTGGTTTCACT; site = the 11-nt target
Outline: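 Reported as log10(CPM+1), each value stands for recombination efficiency. That efficiency is the averaged, control-corrected counts per million of barcodes found at recombinant junctions. Cells from a pooled E. coli library pairing targets with IS621 bridge RNA target-binding loops were plated twice on chloramphenicol/ampicillin LB agar (control) and twice on chloramphenicol/ampicillin/kanamycin with 0.1 mM IPTG.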
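Note: IS621 recombinase and bridge RNA in Escherichia coli cells.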

Sequence | recombinant barcode read abundance (log10)
GGGACCACTTGGGTTCTAACCTGTTGCTA (site GGGACCACTTA) | 1.77
GGGACCACTTGGGTTCTAACCTGTTGCTA (site TTCGGACCTCC) | 0.0578
GGGACCTCTTGGGTTCTAACCTGTTGCTC (site GGGACCTCTGA) | 1.24
GGGACCTCTTGGGTTCTAACCTGTTGCTC (site GTGACCTCTCA) | 0.167
GGGACGACTTGGGTTCTAACCTGTTGCTA (site GGGACGACTAA) | 0.161
GGGACGACTTGGGTTCTAACCTGTTGCTA (site GGGACGACTTA) | 1.35
GGGATACCTTGGGTTCTAACCTGTTGCCT (site GCGTTACCTAG) | 0.0414
GGGATACCTTGGGTTCTAACCTGTTGCCT (site GGGATACCTAG) | 2.6
GGGCACTCTTGGGTTCTAACCTGTTGCAT (site GGGCACTCTAA) | 0.75
GGGCACTCTTGGGTTCTAACCTGTTGCAT (site GGGCACTCTAC) | 0.132
GGGCACTCTTGGGTTCTAACCTGTTGCAT (site GGGCACTCTAG) | 0.606
GGGCACTCTTGGGTTCTAACCTGTTGCAT (site GGGCACTCTAT) | 2.22
GGGCACTCTTGGGTTCTAACCTGTTGCCT (site GGGCACTCTAA) | 0.122
GGGCACTCTTGGGTTCTAACCTGTTGCCT (site GGGCACTCTAC) | 0.0754
GGGCACTCTTGGGTTCTAACCTGTTGCCT (site GGGCACTCTAG) | 1.22
GGGCACTCTTGGGTTCTAACCTGTTGCCT (site GGGCACTCTAT) | 0.585
GGGCACTCTTGGGTTCTAACCTGTTGCTT (site GGGCACTCTAA) | 1.93
GGGCACTCTTGGGTTCTAACCTGTTGCTT (site GGGCACTCTAC) | 0.503
GGGCACTCTTGGGTTCTAACCTGTTGCTT (site GGGCACTCTAG) | 1.35
GGGCACTCTTGGGTTCTAACCTGTTGCTT (site GGGCACTCTAT) | 1.54
GGGCAGGCTTGGGTTCTAACCTGTTGCCT (site ATCGTATCTGC) | 0.189
GGGCAGGCTTGGGTTCTAACCTGTTGCCT (site GGGCAGGCTAG) | 0.969

Sequence | recombinant barcode read abundance (log10)
GGGCCCGCTTGGGTTCTAACCTGTTGCTA (site GGGCCCGCTTA) | 1.68
GGGCCCGCTTGGGTTCTAACCTGTTGCTA (site GGTCCCGCTTG) | 0.0696
GGGCCTACTTGGGTTCTAACCTGTTGCTC (site GGGCCTACTAA) | 0.248
GGGCCTACTTGGGTTCTAACCTGTTGCTC (site GGGCCTACTCA) | 0.0546
GGGCCTACTTGGGTTCTAACCTGTTGCTC (site GGGCCTACTGA) | 0.29
GGGCCTACTTGGGTTCTAACCTGTTGCTC (site GGGCCTACTTA) | 0.171
GGGCCTACTTGGGTTCTAACCTGTTGCTT (site GGGCCTACTAA) | 0.914
GGGCCTACTTGGGTTCTAACCTGTTGCTT (site GGGCCTACTCA) | 0.369
GGGCCTACTTGGGTTCTAACCTGTTGCTT (site GGGCCTACTGA) | 0.255
GGGCCTACTTGGGTTCTAACCTGTTGCTT (site GGGCCTACTTA) | 0.063
GGGCCTTCTTGGGTTCTAACCTGTTGCAT (site GGGACTTCTAT) | 0.24
GGGCCTTCTTGGGTTCTAACCTGTTGCAT (site GGGCCTTCTAT) | 1.07
GGGCCTTCTTGGGTTCTAACCTGTTGCAT (site GGGGCTTCTAT) | 0.31
GGGCCTTCTTGGGTTCTAACCTGTTGCAT (site GGGTCTTCTAT) | 0.0646
GGGGACCCTTGGGTTCTAACCTGTTGCGA (site GGGGACCCTAC) | 1.74
GGGGACCCTTGGGTTCTAACCTGTTGCGA (site GGGGACCCTCC) | 0.877
GGGGACCCTTGGGTTCTAACCTGTTGCGA (site GGGGACCCTGC) | 0.247
GGGGACCCTTGGGTTCTAACCTGTTGCGA (site GGGGACCCTTC) | 2.48
GGGGACCCTTGGGTTCTAACCTGTTGCGC (site GGGGACCCTAC) | 2.24
GGGGACCCTTGGGTTCTAACCTGTTGCGC (site GGGGACCCTCC) | 0.0282
GGGGACCCTTGGGTTCTAACCTGTTGCGC (site GGGGACCCTGC) | 3.3
GGGGACCCTTGGGTTCTAACCTGTTGCGC (site GGGGACCCTTC) | 0.283

Sequence | recombinant barcode read abundance (log10)
GGGGAGCCTTGGGTTCTAACCTGTTGCGG (site GGGGAGCCTCC) | 2.38
GGGGAGCCTTGGGTTCTAACCTGTTGCGG (site GGGGATCCTTC) | 0.335
GGGGCACCTTGGGTTCTAACCTGTTGCGT (site GGGGCACCTAA) | 1.16
GGGGCACCTTGGGTTCTAACCTGTTGCGT (site GGGGCACCTAC) | 3.72
GGGGCACCTTGGGTTCTAACCTGTTGCGT (site GGGGCACCTAG) | 0.492
GGGGCACCTTGGGTTCTAACCTGTTGCGT (site GGGGCACCTAT) | 2.61
GGGGCATCTTGGGTTCTAACCTGTTGCCT (site GGGACATCTAG) | 0.105
GGGGCATCTTGGGTTCTAACCTGTTGCCT (site GGGGCATCTAG) | 0.0863
GGGGCATCTTGGGTTCTAACCTGTTGCTT (site GGGGCATCTAA) | 0.95
GGGGCATCTTGGGTTCTAACCTGTTGCTT (site GGGGCCTCTAA) | 0.0583
GGGGCATCTTGGGTTCTAACCTGTTGCTT (site GGGGCGTCTAA) | 0.0873
GGGGCATCTTGGGTTCTAACCTGTTGCTT (site GGGGCTTCTAA) | 0.0362
GGGGCCTCTTGGGTTCTAACCTGTTGCAG (site GGGGCCTCTCT) | 3.05
GGGGCCTCTTGGGTTCTAACCTGTTGCAG (site GGTGCCTCTAT) | 0.213
GGGGCGACTTGGGTTCTAACCTGTTGCCT (site GGGGCGACTAG) | 0.358
GGGGCGACTTGGGTTCTAACCTGTTGCCT (site GGGGCGCCTAG) | 0.0568
GGGGCGACTTGGGTTCTAACCTGTTGCCT (site GGGGCGGCTAG) | 0.13
GGGGCGACTTGGGTTCTAACCTGTTGCCT (site GGGGCGTCTAG) | 0.0176
GGGGCTTCTTGGGTTCTAACCTGTTGCAT (site GGGACTTCTAT) | 0.158
GGGGCTTCTTGGGTTCTAACCTGTTGCAT (site GGGCCTTCTAT) | 0.0416
GGGGCTTCTTGGGTTCTAACCTGTTGCAT (site GGGGCTTCTAT) | 2.07
GGGGCTTCTTGGGTTCTAACCTGTTGCAT (site GGGTCTTCTAT) | 0.27

Sequence | recombinant barcode read abundance (log10)
GGGGTTCCTTGGGTTCTAACCTGTTGCCT (site GGGGTTCCTAA) | 0.223
GGGGTTCCTTGGGTTCTAACCTGTTGCCT (site GGGGTTCCTAC) | 1.56
GGGGTTCCTTGGGTTCTAACCTGTTGCCT (site GGGGTTCCTAG) | 2.3
GGGGTTCCTTGGGTTCTAACCTGTTGCCT (site GGGGTTCCTAT) | 1.42
GGGGTTCCTTGGGTTCTAACCTGTTGCGT (site GGGGTTCCTAA) | 0.321
GGGGTTCCTTGGGTTCTAACCTGTTGCGT (site GGGGTTCCTAC) | 3.32
GGGGTTCCTTGGGTTCTAACCTGTTGCGT (site GGGGTTCCTAG) | 1.35
GGGGTTCCTTGGGTTCTAACCTGTTGCGT (site GGGGTTCCTAT) | 1.85
GGGGTTCCTTGGGTTCTAACCTGTTGCTT (site GGGGTTCCTAA) | 1.52
GGGGTTCCTTGGGTTCTAACCTGTTGCTT (site GGGGTTCCTAC) | 1.89
GGGGTTCCTTGGGTTCTAACCTGTTGCTT (site GGGGTTCCTAG) | 1.36
GGGGTTCCTTGGGTTCTAACCTGTTGCTT (site GGGGTTCCTAT) | 1.17
GGGTAATCTTGGGTTCTAACCTGTTGCCT (site GGGTAAACTAG) | 0.27
GGGTAATCTTGGGTTCTAACCTGTTGCCT (site GGGTAATCTAG) | 0.725
GGGTCCACTTGGGTTCTAACCTGTTGCCT (site GGGTCCACTAA) | 0.481
GGGTCCACTTGGGTTCTAACCTGTTGCCT (site GGGTCCACTAC) | 0.287
GGGTCCACTTGGGTTCTAACCTGTTGCCT (site GGGTCCACTAG) | 2.5
GGGTCCACTTGGGTTCTAACCTGTTGCCT (site GGGTCCACTAT) | 0.358
GGGTCCACTTGGGTTCTAACCTGTTGCTT (site GGGTCCACTAA) | 1.51
GGGTCCACTTGGGTTCTAACCTGTTGCTT (site GGGTCCACTAC) | 0.139

— the supplement of paper PMC11208160
